Data reported in paper PMC12974487, “Inhibition of FicD-mediated AMPylation and deAMPylation by isoprenoid diphosphates” (Proceedings of the National Academy of Sciences of the …, 2026).
Where a chain is given by its changes, count along the chain named.

Assays:
FicD^L258D = molecular target: T1, FicD^L258D (Homo sapiens, UniProt Q9BVA6, L258D); test: MIDAS metabolite screen, FicD^L258D; format: binding; settings: cutoff Q < 0.05 and |Log2 corrected fold change| > 2, metabolites 5 µM
T1 construct: soluble ER luminal domain (residues 105 to 458) of wild-type human FicD and three mutants; 6xHis-Sumo (N, cleaved yes); made in house; host or cells: Rosetta(DE3) E. coli
T1 sequence (Q9BVA6 105-458 L258D): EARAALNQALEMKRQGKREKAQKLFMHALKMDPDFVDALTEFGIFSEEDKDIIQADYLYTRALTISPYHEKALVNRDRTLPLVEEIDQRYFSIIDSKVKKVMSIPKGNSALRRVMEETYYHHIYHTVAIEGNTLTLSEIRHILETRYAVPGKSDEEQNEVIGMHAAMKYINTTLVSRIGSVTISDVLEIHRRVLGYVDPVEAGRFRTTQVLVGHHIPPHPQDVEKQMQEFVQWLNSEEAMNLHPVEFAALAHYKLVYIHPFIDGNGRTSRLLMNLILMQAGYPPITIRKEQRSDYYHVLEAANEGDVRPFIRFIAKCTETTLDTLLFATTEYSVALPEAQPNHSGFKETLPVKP
Description: (§1) To identify small-molecule metabolite interactions with FicD, we applied an unbiased high-throughput screening approach known as MIDAS ([44]). Given the high concentrations of protein required for MIDAS screening, we purified the soluble ER luminal domain (residues 105 to 458) of wild-type human FicD and three mutants FicD^E234G, FicD^L258D, and FicD^H363A for screening (Fig. 1A). These mutants were selected based on their well-established biochemical features ([23], [24], [31]). All three are predicted to enhance detection of protein–metabolite interactions (PMIs) relative to FicD^WT through increased affinity for nucleotide substrates (FicD^E234G), improved solubility (FicD^L258D), and loss of catalytic turnover (FicD^H363A) (Fig. 1A). To decrease the potential for nonspecific small-molecule binding, we ensured the purity of our FicD proteins (SI Appendix, Fig. S1 A and B). As reported by other investigators ([24], [31]), we observe an increase in elution volume of the FicD^L258D mutant, consistent with its monomerization (SI Appendix, Fig. S1C).
(§2) Out of the 602 naturally occurring human metabolites in the MIDAS library, we applied a significance cutoff (q value < 0.05) to identify 12 PMIs with a Log2 (corrected fold change) of >2 and two PMIs with a Log2 (corrected fold change) <-2 in the FicD^WT screen (Fig. 1B and SI Appendix, Table S2). Hits were additionally triaged based on detection of multiple adducts of the metabolite in a single dataset (FPP and […] in Fig. 1B) and identification of the same metabolites across three or more of the FicD construct screens (Fig. 1C). Three chemical classes passed this initial triage: adenosine nucleotides, isoprenoid diphosphates, and thyroid hormone intermediates (Fig. 1 B and C and SI Appendix, Tables S2–S5).
(§3) 22°C. Induced cultures were then harvested by centrifugation at 8000G for 15 minutes at 4°C and […]
(§4) Bacterial pellets were resuspended in 30-50mL of 50mM Tris pH 7.4/150mM NaCl/10% glycerol with one Roche cOmplete EDTA-Free Protease inhibitor cocktail tablet (cat no. COEDTAF-RO).
(§5) Triton-X100 to a final concentration of 0.2%, Chicken-egg lysozyme to a final concentration of 0.4ug/mL, and 2-5uL of Millipore Benzonase Nuclease (cat no. 70664) were added to bacterial suspension prior to sonication at 40-50% amplitude for 1-3 minutes in pulses of 5 seconds on and 30 seconds off on ice with a Sonics VCX 750 Ultrasonicator. Bacterial lysate was then clarified by centrifugation at 30,000 x g for 30 minutes at 4°C.
Clarified lysate was rotated with Qiagen NiNTA agarose beads (cat no. 30210) for 1-2 hours at 4°C. The beads were then transferred to a 15mL conical vial, resuspended in 10-15mL wash buffer (50mM Tris pH 7.4/150mM NaCl/10% glycerol/0.2% Triton-X 100/10mM imidazole), and spun down at 1000G for 1 minute at 4°C, after which the supernatant was aspirated from the beads. This washing step was repeated 2-4 times to rinse bacterial lysate from the beads prior to on-column washing. The beads were then transferred to BioRad Econopac 20mL bed volume column (cat no.
7321010) and washed with 10-15mL of wash buffer (repeated at least three times), 10mL of ATP wash (50mM Tris pH 7.4/300mM KCl/10mM MgCl2/500uM ATP, repeated once), and finally with 10-15mL wash buffer without Triton-X 100 (repeated at least three times). Protein was eluted in 500μL-1mL elution buffer (50mM Tris pH 7.5/150mM NaCl/10% glycerol/0.5% CHAPS). […]

FicD^E234G = molecular target: T2, FicD^E234G (Homo sapiens, UniProt Q9BVA6, E234G); test: MIDAS metabolite screen, FicD^E234G; format: binding; settings: cutoff Q < 0.05 and |Log2 corrected fold change| > 2, metabolites 5 µM
T2 construct: soluble ER luminal domain (residues 105 to 458) of wild-type human FicD and three mutants; 6xHis-Sumo (N, cleaved yes); made in house; host or cells: Rosetta(DE3) E. coli
T2 sequence (Q9BVA6 105-458 E234G): T1 sequence (Q9BVA6 105-458 L258D) with E130G, D154L

FicD^WT = molecular target: T3, FicD^WT (Homo sapiens, UniProt Q9BVA6); test: MIDAS equilibrium dialysis/mass spectrometry metabolite screen, FicD^WT; format: binding; settings: cutoff Q < 0.05 and |Log2 corrected fold change| > 2, metabolites 5 µM
T3 construct: soluble ER luminal domain (residues 105 to 458) of wild-type human FicD; 6xHis-Sumo (N, cleaved yes); made in house; host or cells: Rosetta(DE3) E. coli
T3 sequence (Q9BVA6 105-458): T1 sequence (Q9BVA6 105-458 L258D) with D154L

FicD^H363A = molecular target: T4, FicD^H363A (Homo sapiens, UniProt Q9BVA6, H363A); test: MIDAS metabolite screen, FicD^H363A; format: binding; settings: cutoff Q < 0.05 and |Log2 corrected fold change| > 2, metabolites 5 µM
T4 construct: soluble ER luminal domain (residues 105 to 458) of wild-type human FicD and three mutants; 6xHis-Sumo (N, cleaved yes); made in house; host or cells: Rosetta(DE3) E. coli
T4 sequence (Q9BVA6 105-458 H363A): T1 sequence (Q9BVA6 105-458 L258D) with D154L, H259A
Description: as §1, §2, §3, §4, §5
Clarified lysate was rotated with Qiagen NiNTA agarose beads (cat no. 30210) for 1-2 hours at 4°C. […]

FicD = test system: FicD; parameters: method as in PMID 40036289; settings: cited from earlier work

Row | SMILES | MIDAS protein-metabolite interaction (enrichment/depletion) (FicD^L258D) | MIDAS protein-metabolite interaction (enrichment/depletion) (FicD^E234G) | MIDAS protein-metabolite interaction (enrichment/depletion) (FicD^WT) | MIDAS protein-metabolite interaction (enrichment/depletion) (FicD^H363A) | FicD inhibition reported in previous drug screens (FicD)
1 | N[C@@H](Cc1ccc(Oc2ccc(O)c(I)c2)c(I)c1)C(=O)O [3,3’-Diiodothyronine] | significantly enriched | significantly enriched | significantly enriched | significantly enriched | 
2 | N[C@@H](Cc1cc(I)c(Oc2ccc(O)c(I)c2)c(I)c1)C(=O)O [liothyronine] |  |  |  |  | small-molecule inhibitor of FicD
